What all share (type): physicochemical
Series [1] is described as follows: Hygroscopicity on storage at controlled temperature and relative humidity. The protocol:
The four crystalline salts were tested in order to determine their ease of handling, hygroscopicity, and thermal stability. The hydrochloride and phosphate salts have the advantage of improved handling properties over the free base glass/gum by virtue of their crystallinity. […] Both salts deliquesced on overnight storage at 40° C. in an environment having 75% relative humidity.
The mesylate and sulphate salts have the advantage of improved handling properties over the free base gum by virtue of their crystallinity. […] The mesylate salt deliquesced following storage for 3 days at 40° C. in an environment having 75% relative humidity. The sulphate salt was unchanged after storage for 7 days at 40° C. in an environment having 75% relative humidity.

The nature of series [2]: Hygroscopicity during long term storage, assessed by Karl Fisher (KF) titration. Conditions: GMP-type packaging with desiccant. As to the method:
The water content of each sample was measured on a Mettler Toledo DL39 Coulometer using Hydranal Coulomat AG reagent and an argon purge. Weighed solid samples were introduced into the vessel on a platinum TGA pan which was connected to a subaseal to avoid water ingress. Approx 10 mg of sample was used per titration and duplicate determinations were made.
(§1) (3S)-Tetrahydrofuran-3-yl (4S)-4-isopropyl-1,4,6,7-tetrahydro-5H-imidazo[4,5-c]-pyridine-5-carboxylate mesylate was also assessed for stability and hygroscopicity when dispensed in 3 g aliquots in double LDPE liners, sealed with cable tie and placed, with a desiccant pouch into a foil bag, which was subsequently heat-sealed. The foil bag was then placed into an HDPE keg fitted with an HDPE lid. These conditions mirror typical GMP level storage conditions. Stability was assessed by HPLC and hygroscopicity was assessed by Karl Fisher (KF) titration.

Series [3] in a line: Stability during long term storage, assessed by HPLC. As to conditions: GMP-type packaging with desiccant. The protocol:
Purity analysis was performed on an Agilent HP1100 series system equipped with a diode array detector and using ChemStation software vB.02.01-SR1 using the method detailed below.
as §1

[4] abbreviates: overnight storage at 40° C., 75% relative humidity.
Where [5] appears, read: after 6 months at 40° C./75% RH.

Entries after “also recorded” stand apart in the source; their conditions may differ. Like-named read-outs stand apart in the source and are kept apart here.

In the case of `CC(C)[C@H]1c2[nH]cnc2CCN1C(=O)O[C@H]1CCOC1` [Free base, (3S)-Tetrahydrofuran-3-yl (4S)-4-isopropyl-1,4,6,7-tetrahydro-5H-imidazo[4,5-c]pyridine-5-carboxylate], the “Hygroscopicity (in words)” value in series [1] is reported as “hygroscopic”.

For `CC(C)[C@H]1c2nc[nH]c2CCN1C(=O)O[C@H]1CCOC1.Cl` [Hydrochloride salt, (3S)-Tetrahydrofuran-3-yl (4S)-4-isopropyl-1,4,6,7-tetrahydro-5H-imidazo[4,5-c]-pyridine-5-carboxylate hydrochloride], the “Hygroscopicity (in words)” value in series [1] (hydrochloride) was “somewhat hygroscopic; also recorded: highly hygroscopic”. The Hygroscopicity result in series [1] (setting [4]) is recorded as “deliquesced”.

`CC(C)[C@H]1c2nc[nH]c2CCN1C(=O)O[C@H]1CCOC1.CS(=O)(=O)O` [Mesylate salt, (3S)-Tetrahydrofuran-3-yl (4S)-4-isopropyl-1,4,6,7-tetrahydro-5H-imidazo[4,5-c]-pyridine-5-carboxylate mesylate]: the “Water uptake (KF)” value in series [2] (setting [5]) is listed as 0.1%; in series [2] (over 3 years at 25° C./60% RH), “no water uptake”. The “Degradation (HPLC)” value in series [3] (setting [5]) and in series [3] (over 3 years at 25° C./60% RH) was 0.1% each time. Further, in series [1] (40° C./75% RH after 3 days, listed as mesylate salt, mesylate), the Hygroscopicity entry was “deliquesced”.

For `CC(C)[C@H]1c2nc[nH]c2CCN1C(=O)O[C@H]1CCOC1.O=P(O)(O)O` [Phosphate salt, (3S)-Tetrahydrofuran-3-yl (4S)-4-isopropyl-1,4,6,7-tetrahydro-5H-imidazo[4,5-c]-pyridine-5-carboxylate phosphate], the Hygroscopicity result in series [1] (setting [4]) was “deliquesced”. Further, in series [1] (phosphate), the “Hygroscopicity (in words)” value is on record as “somewhat hygroscopic; also recorded: highly hygroscopic”.

For `CC(C)[C@H]1c2nc[nH]c2CCN1C(=O)O[C@H]1CCOC1.O.O=S(=O)(O)O` [Sulfate salt (.1.5H2O), (3S)-Tetrahydrofuran-3-yl (4S)-4-isopropyl-1,4,6,7-tetrahydro-5H-imidazo[4,5-c]-pyridine-5-carboxylate sulphate hydrate], the Hygroscopicity entry is “unchanged” in series [1] (40° C./75% RH for up to 7 days, listed as sulphate salt, sulphate hydrate) and “No change at 40° C./” in series [1] (40° C./75% RH for up to 7 days, sulphate hydrate).

The values above are taken from patent US10316034B2, “Pharmaceutical salt forms of an inhibitor of semicarbazide-sensitive amine oxidase (SSAO)” (BENEVOLENTAI CAMBRIDGE LIMITED, priority 2015, dated 2019).
